Laboratory results: publication PMC4869678, “Synthesis and Evaluation of a 2,11‐Cembranoid‐Inspired Library” (Chemistry (Weinheim an Der Bergstrasse, Germany), 2016)
Converted amounts (≈) assume the structure as drawn. One block for each compound: values may come before it.

Experiments:
[1] = PAMPA (parallel artificial membrane permeability assay); type: in vitro ADME
Source text: (§1) Due to a lack of UV chromophore and/or poor mass spectrometry ionisation, nephelometry46 was used to measure the solubility. PAMPA (parallel artificial membrane permeability assay)47 was used to assess the permeability.

[2] = Aqueous solubility by nephelometry; type: physicochemical; settings: aqueous medium (not further specified), kinetic from dmso stock, measured by nephelometry
Source text: as §1

[3] = test system: Caco‐2 human intestinal cancer cells; assay: Permeability across a Caco-2 monolayer; type: in vitro ADME
[4] = Permeability across a Caco-2 monolayer; type: in vitro ADME, human; settings: human, read-out: permeability across a monolayer of Caco‐2 cells
PC3 cells [5] = assay: SRB antiproliferative concentration-response assay; type: cell-based; settings: Homo sapiens, PC-3, in vitro 96 h assay, full dose response curve
Experimental: (§2) Figure 6 a) Concentration–response curve for the antiproliferative effect of compound 28 on PC3 cells in vitro 96 h assay. b) Compound 28 inhibiting the migration properties of PC3 TEM cancer cells. FCS=fetal calf serum.
Cells were seeded in 100μl medium into 96-well plates. After 36 hours, serial doubling dilutions of drug (or vehicle) were added to give the required dose range in sextuplicate across the plate. Cells were incubated for a further 96 hours. The medium was then removed and cells were fixed by adding 50μl of 10% (w/v) trichloroacetic acid (TCA) for one hour at room temperature. The plates were gently washed by immersion in tap water three times then air dried. 50μl of 0.4% (w/v) SRB in 1% (v/v) acetic acid was added to each well for one hour. […] Absorbance at 570nm was measured using a SPECTRAmax 340PC plate reader.
(§3) Cells in standard tissue culture flasks were fluorescently labelled by incubation with 1umol/L CellTracker Green 5-chloromethylfluorescein diacetate (Invitrogen, Paisley) concomitant with serum starvation for two hours. Following trypsinisation cells were counted and added to the upper wells of 8um pore FluoroblokTM membrane inserts in 24-well companion plates (BD Biosciences, Franklin Lakes, NJ). […] Cells which successfully migrated to the lower surface of the filter were visualised using an inverted fluorescence

PC3 TEM cancer cells = assay: Migration assay (Fluoroblok membrane, FCS chemotaxis); type: cell-based, human; settings: 3‐ and 5‐fold GI50 concentrations, FCS-stimulated migration
Experimental: as §2
Whereas cembranoid natural products may not be inherently cytotoxic, an appreciable number do display an ability to inhibit the migratory and invasive properties of cancer cells.50 The effect of compound 28 on a PC3‐based migratory assay was therefore determined.
Cells were seeded in 100μl medium into 96-well plates. After 36 hours, serial doubling dilutions of drug (or vehicle) were added to give the required dose range in sextuplicate across the plate. Cells were incubated for a further 96 hours. […] Absorbance at 570nm was measured using a SPECTRAmax 340PC plate reader.
as §3

[6] = test system: PC3 human prostate cancer cell line; assay: NCI panel growth inhibition, PC3 line; type: cell-based; settings: PC3, single concentration of 10 µM, 48 h, NCI screen, read-out: inhibition of proliferation
Experimental: A selection of fifteen of the cembranoid‐inspired compounds was screened against a panel of 60 cancer cell lines at the National Cancer Institute screening panel (see the Supporting Information).49 This cell‐based assay aims to discover compounds with a strong cytostatic or cytotoxic growth inhibition over 48 h. Unfortunately, only low levels (up to 20 %) of cell growth inhibition were seen when screened at a single concentration of 10 µM.

cancer cells = test system: cancer cells; set-up: method as in PMID 20420415; settings: 50 µM; cited from earlier work
[7] = test system: L1210 mouse lymphocytic leukemia cells; set-up: method as in earlier work; settings: in vitro; cited from earlier work
PC3 cells [8] = settings: 50 µM; cited from earlier work

- permeability (Pe) [1]: 250 nm/s
- solubility [2]: 500 µM (≈ 131 µg/mL)
Compound: C=CCC1OC(COC(=O)C=CC)C2CC=CCC12 (stereo not drawn) [Compound 15]

- transporter efflux [3]: no evidence of transporter efflux
- Papp [4]: 160 nm/s
- GI50 (PC3 cells [5]): 63 µM
- permeability (Pe) [1]: 520 nm/s
- solubility [2]: 550 µM (≈ 145 µg/mL)
Compound: O=C1CCC/C=C/C[C@@H]2O[C@H](CO1)[C@H]1CCCC[C@H]12 [Compound 28]
- effect on cell migration (PC3 TEM cancer cells): reduction to near basal levels of migration
- inhibition at 10 µM [6]: 17%

- permeability (Pe) [1]: > 1500 nm/s
- solubility [2]: 550 µM (≈ 139 µg/mL)
Compound: CC1(C)CCC(=O)OCC2OC1C1CCCCC21 (stereo not drawn) [Compound 65]

- solubility [2]: 500 µM (≈ 111 µg/mL)
Compound: OC1CCC=CCC2OC1C1CCCCC21 (stereo not drawn) [Compound 76]

Compound: C=C1CC[C@H](C(C)C)[C@@H]2[C@H]1[C@H]1C[C@](C)(O)[C@@H](O)CC[C@@](C)(O)[C@@H]2O1 [sclerophytin A]
- inhibition of migration (cancer cells): 85%
- IC50 [7]: 0.003 µM
- effect on proliferation (PC3 cells [8]): no effect on proliferation
